Test [1] addresses Full length wild-type cereblon CRBN (Homo sapiens (Human), UniProt Q96SW2). In words: Fluorescence polarization (FP) assay, cereblon binding. The method, then: Compound activity was monitored in a fluorescence polarization (FP) homogeneous assay using 1-[5-({2-[2-(2-{[2-(2,6-dioxopiperidin-3-yl)-1,3-dioxo-2,3-dihydro-1H-isoindol-4-yl]oxy}acetamido)ethoxy]ethyl}carbamoyl)pentyl]-3,3-dimethyl-2-[(1E,3E)-5-[(2E)-1,3,3-trimethyl-5-sulfo-2,3-dihydro-1H-indol-2-ylidene]penta-1,3-dien-1-yl]-3H-indol-1-ium-5-sulfonate as a fluorescent probe. Unless otherwise stated, all reagents were purchased from Sigma Aldrich. Enzymatic reactions were conducted in Perkin-Elmer Black 384 well ProxiPlate Plus (catalogue no. 6008269) in 10 sL total volume. Full length wild-type cereblon CRBN (80.0 nM, 10 sL) was incubated in assay buffer containing 20 mM HEPES (pH 8.0), […], 0.5 mM TCEP and 0.05% Tween 20 in the presence or absence of compound (300 nL). Inhibitors were stored as 10 mM DMSO stocks in an inert environment (low humidity, dark, low oxygen, room temperature) using the Storage Pod System.
Compounds and DMSO were dispensed using the Echo E5XX (Labcyte Inc. USA) to give concentrations from 300 to 0.937 or 3000 to 9.3 nM in a 12 data point curve. […] Following incubation at room temperature for 30 min, the assay was initiated by dispensing the probe to a final concentration of 5 nM (2.5 nL of a 20 μM stock) using the Echo E5XX. FP was measured after a period of 12 hours using a Pherastar plate reader (BMG Labtech, Germany) exciting at 590 nm and measuring the amount of parallel and perpendicular light at 675 nm. The FP signal was subsequently normalized to the no-compound control (i.e., DMSO). Analysis and IC50 values were derived using Dotmatics (Dotmatics UK) software.
(In fluorescence polarisation assays a small probe gives low polarisation when free and higher when bound to something large.)

In the next test the target is GSPT1 (Homo sapiens (Human), UniProt P15170+Q96SW2). In words: Immunofluorescence assay for GSPT1 degradation in CAL-Si cells. It is filed as cell-based. Conditions: CAL-Si cells. The method, then: The compounds were tested in an immunofluorescence assay for their activity to bind to degrade GSPT1. CAL-Si cells were purchased from DSMZ (cat. Number ACC302), sub-cultured in 90% Dulbecco's MEM (4.5 g/L glucose, Gibco 11965)+10% heat inactivated FBS (BioConcept, 2-01F136I) and incubated at 37° C., 5% CO2. For the assay, imaging microtiterplate Cell Carrier 96 Ultra (Perkin Elmer 6055302) were pre-coated with Fibronectin (Sigma F085, 30 μl at 0.2 μg/ml) in PBS (100 μl, Gibco 14190) for 45 min at room temperature, rinsed with PBS and CAL-Si cells (30K cells/well) were plated and let to adhere overnight. Cells were treated with compounds typically using a serial dilution ranging from 30 μM to 0.1 nM for 6 hours. Compounds were stored at 10 mM DMSO stocks. Vehicle (DMSO), positive (CC-885, 10 μM) and rescue controls (positive control plus 0.2 μM bortezomib) were also included at this stage. Cells were subsequently rinsed with PBS and fixed in 10% Formalin solution (50 μl, Sigma HT5011)) for 20 mins at room temperature. Following three consecutive PBS washes (100 μl), cells were permeabilized in 0.1% Triton X-100 in PBS (Sigma 93443, 50 μl) for 15 mins at room temperature. Following three further PBS washes, 50 μl blocking buffer (1% BSA, Sigma A4503, in PBS) was added for 45 min for signal-to-noise reduction.
Primary antibody (human GSPT1, Sigma HPA052488) was diluted in blocking buffer (dil.1/300, 35 μl/well) and incubated with the cells overnight at 4° C. After three PBS washes, Alexa-fluor 488 coupled secondary antibodies (Invitrogen, A32731, dil.1/1000), Alexa-fluor 647-Phalloïdin (Invitrogen, A22287, dil.1/200) and DAPI (Thermo, #62248, dil.1/1000) were diluted in blocking buffer and incubated with the samples for 2 hours at room temperature. After three final PBS washes, samples were conserved in 100 μl PBS in the dark, until measurement. Image acquisition was performed on the Operetta High-Content Imager (Perkin-Elmer). Fluorescence intensity of Alexa-Fluor 488 (GSPT1), Alexa-Fluor 647 (Actin) and DAPI (Nucleus) were measured. For the determination of GSPT1 DC50 values, a custom algorithm implemented in the PerkinElmer image analysis software Harmony-Acapella® was developed. After user-defined setting of adjustment parameters, the analysis was run identically without human intervention for all image fields. DAPI staining of the nuclei was used to determine the location of cells using standard nuclei detection modules. Segmentation artifacts were removed by threshold-based filters for area, roundness and intensity. The outline of the cells was determined analogously from the sum of the normalized, smoothed DAPI and Actin channel, starting from each nucleus. The Alexa-Fluor 488 (GSPT1) signal intensity in each cell was finally measured, in order to obtain a Mean intensity per cell. GSPT1 degradation (DC50) was calculated after normalization to controls and data import in CDD vault Database, using non-linear regression.

Setting [2] is: wild-type CRBN 80.0 nM, probe 5 nM, FP measured after 12 hours, read-out: rFP IC50.
The mark [3] stands for this setting: treated 6 hours, read-out: Code, activity for GSPT1 degradation (DC50).
Where [4] appears, read: cereblon binding, bound, read-out: IC50 value.
[5] abbreviates: compounds with code A, read-out: DC50 value code.

Molecules are shown by their SMILES. pIC50: −log10 of the molar value. Read-outs that look alike come from different tables or passages of the source.

By pIC50 is commonly meant −log10 of the IC50, conventionally taken in molar units. Broadly, the DC50 is the concentration giving 50% degradation.

Sequence of Full length wild-type cereblon CRBN (Q96SW2 whole entry): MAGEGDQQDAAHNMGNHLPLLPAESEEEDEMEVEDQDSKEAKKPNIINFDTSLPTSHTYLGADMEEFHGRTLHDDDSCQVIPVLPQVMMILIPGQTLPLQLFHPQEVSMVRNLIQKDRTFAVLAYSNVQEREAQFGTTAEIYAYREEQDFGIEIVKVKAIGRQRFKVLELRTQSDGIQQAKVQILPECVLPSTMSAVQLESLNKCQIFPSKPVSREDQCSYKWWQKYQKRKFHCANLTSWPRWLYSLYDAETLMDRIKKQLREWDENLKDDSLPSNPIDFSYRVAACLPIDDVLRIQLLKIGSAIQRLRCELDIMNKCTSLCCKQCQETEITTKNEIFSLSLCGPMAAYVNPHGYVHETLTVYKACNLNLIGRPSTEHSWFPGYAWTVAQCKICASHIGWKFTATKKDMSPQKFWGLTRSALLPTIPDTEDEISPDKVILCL
Sequence of GSPT1 (P15170 whole entry): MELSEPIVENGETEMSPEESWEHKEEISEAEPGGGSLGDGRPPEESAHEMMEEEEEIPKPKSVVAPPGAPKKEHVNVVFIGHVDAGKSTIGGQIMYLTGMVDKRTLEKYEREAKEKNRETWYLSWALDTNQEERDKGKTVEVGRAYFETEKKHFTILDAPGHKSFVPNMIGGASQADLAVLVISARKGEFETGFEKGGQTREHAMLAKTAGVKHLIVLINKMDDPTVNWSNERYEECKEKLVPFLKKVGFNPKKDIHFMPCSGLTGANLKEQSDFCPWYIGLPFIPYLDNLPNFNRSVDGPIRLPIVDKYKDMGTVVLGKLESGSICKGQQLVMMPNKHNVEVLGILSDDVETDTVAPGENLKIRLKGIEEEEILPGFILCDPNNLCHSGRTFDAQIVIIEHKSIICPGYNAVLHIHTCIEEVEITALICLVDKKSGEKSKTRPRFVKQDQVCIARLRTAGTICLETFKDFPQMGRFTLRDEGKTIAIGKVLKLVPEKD
Sequence of GSPT1 (Q96SW2 whole entry): as the sequence (Q96SW2 whole entry) above
Sequence of GSPT1 (Q16531 whole entry partner): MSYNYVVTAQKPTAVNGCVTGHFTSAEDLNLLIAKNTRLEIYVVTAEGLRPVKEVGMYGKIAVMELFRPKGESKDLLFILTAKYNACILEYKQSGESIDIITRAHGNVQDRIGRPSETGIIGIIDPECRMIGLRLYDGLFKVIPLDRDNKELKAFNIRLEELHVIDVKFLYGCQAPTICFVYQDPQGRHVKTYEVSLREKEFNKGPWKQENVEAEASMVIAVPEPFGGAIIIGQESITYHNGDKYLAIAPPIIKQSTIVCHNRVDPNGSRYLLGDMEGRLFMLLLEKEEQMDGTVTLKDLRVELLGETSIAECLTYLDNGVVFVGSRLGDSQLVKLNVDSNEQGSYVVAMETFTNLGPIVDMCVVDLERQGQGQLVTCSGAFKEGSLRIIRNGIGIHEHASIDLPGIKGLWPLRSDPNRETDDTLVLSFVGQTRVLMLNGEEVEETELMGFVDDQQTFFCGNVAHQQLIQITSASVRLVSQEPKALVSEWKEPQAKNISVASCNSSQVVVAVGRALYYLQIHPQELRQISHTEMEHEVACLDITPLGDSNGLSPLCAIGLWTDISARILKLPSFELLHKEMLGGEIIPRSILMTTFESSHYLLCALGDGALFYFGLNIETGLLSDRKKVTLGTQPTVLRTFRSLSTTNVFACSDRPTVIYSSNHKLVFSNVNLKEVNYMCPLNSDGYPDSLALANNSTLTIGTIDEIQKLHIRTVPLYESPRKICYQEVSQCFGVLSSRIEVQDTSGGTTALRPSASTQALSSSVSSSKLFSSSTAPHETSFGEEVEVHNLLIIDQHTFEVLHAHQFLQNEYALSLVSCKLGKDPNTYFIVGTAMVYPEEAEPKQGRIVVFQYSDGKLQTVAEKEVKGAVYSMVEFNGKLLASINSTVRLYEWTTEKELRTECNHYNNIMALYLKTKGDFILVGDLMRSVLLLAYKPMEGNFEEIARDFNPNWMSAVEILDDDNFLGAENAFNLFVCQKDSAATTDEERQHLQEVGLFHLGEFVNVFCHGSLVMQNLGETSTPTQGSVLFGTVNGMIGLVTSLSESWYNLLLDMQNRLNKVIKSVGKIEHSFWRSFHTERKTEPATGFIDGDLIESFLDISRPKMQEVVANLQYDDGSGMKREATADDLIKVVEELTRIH

Regarding `CC1(c2ccc(NC(=O)OCc3cc(F)c4c(c3)C(=O)N(C3CCC(=O)NC3=O)C4)cc2)CC1` (centres unmarked) [Compound 13, (2-(2,6-dioxopiperidin-3-yl)-7-fluoro-3-oxoisoindolin-5-yl)methyl (4-(1-methylcyclopropyl)phenyl)carbamate], the pIC50 in test [1] (setting [2]) was < 5.72. In addition, the DC50 at GSPT1 (setting [3]) was 30 to 300 nM.

Take `Cc1ccccc1-c1ccc(NC(=O)OCc2cc(F)c3c(c2)C(=O)N(C2CCC(=O)NC2=O)C3)cn1` (centres unmarked) [Compound 19, (2-(2,6-dioxopiperidin-3-yl)-7-fluoro-3-oxoisoindolin-5-yl)methyl (6-(o-tolyl)pyridin-3-yl)carbamate]: the values for the negative logarithm of the IC50 (pIC50) in test [1] (setting [4]) and in test [1] (setting [2]) were > 6.22 and ≥ 6.22, respectively. Besides, the DC50 at GSPT1 (setting [5]) and at GSPT1 (setting [3]) was < 30 nM throughout.

Consider `COc1cc(COC(=O)Nc2ccc(-c3ccccc3C)nc2)cc2c1CN(C1CCC(=O)NC1=O)C2=O` (centres unmarked) [Compound 60, (2-(2,6-dioxopiperidin-3-yl)-7-methoxy-3-oxoisoindolin-5-yl)methyl (6-(o-tolyl)pyridin-3-yl)carbamate], for which the negative logarithm of the IC50 (pIC50) in test [1] (setting [4]) is > 6.22; in test [1] (setting [2]), ≥ 6.22. Moreover, the DC50 on GSPT1 (setting [5]) and on GSPT1 (setting [3]) was < 30 nM in each case.

As to `COc1cc(COC(=O)Nc2cc(-c3ccccc3)ccn2)cc2c1CN(C1CCC(=O)NC1=O)C2=O` (centres unmarked) [Compound 56, (2-(2,6-dioxopiperidin-3-yl)-7-methoxy-3-oxoisoindolin-5-yl)methyl (4-phenylpyridin-2-yl)carbamate], the pIC50 is > 6.22 in test [1] (setting [4]) and ≥ 6.22 in test [1] (setting [2]). Further, the DC50 on GSPT1 (setting [5]) and at GSPT1 (setting [3]) was < 30 nM in each case.

In the case of `Cc1ccc(NC(=O)OCc2cc(F)c3c(c2)C(=O)N(C2CCC(=O)NC2=O)C3)cc1OC(F)F` (centres unmarked) [Compound 35, (2-(2,6-dioxopiperidin-3-yl)-7-fluoro-3-oxoisoindolin-5-yl) methyl (3-(difluoromethoxy)-4-methylphenyl)carbamate], the pIC50 in test [1] (setting [2]) was < 5.72. In addition, the DC50 at GSPT1 (setting [5]) and at GSPT1 (setting [3]) was < 30 nM each time.

Regarding `COc1cc(COC(=O)Nc2cc(F)cc(OC(F)(F)F)c2)cc2c1CN(C1CCC(=O)NC1=O)C2=O` (centres unmarked) [Compound 41, (2-(2,6-dioxopiperidin-3-yl)-7-methoxy-3-oxoisoindolin-5-yl)methyl (3-fluoro-5-(trifluoromethoxy)phenyl) carbamate], the results for the pIC50 in test [1] (setting [4]) and in test [1] (setting [2]) were > 6.22 and 5.72 to 5.92, respectively. Also, the DC50 on GSPT1 (setting [3]) was 30 to 300 nM.

Regarding `Cc1ccc(NC(=O)OCc2cc(Cl)c3c(c2)C(=O)N(C2CCC(=O)NC2=O)C3)cc1Cl` (centres unmarked) [Compound 4, (7-chloro-2-(2,6-dioxopiperidin-3-yl)-3-oxoisoindolin-5-yl)methyl (3-chloro-4-methylphenyl)carbamate], the pIC50 in test [1] (setting [2]) was < 5.72. For the same compound, the DC50 at GSPT1 (setting [3]) was in the range of 30 to 300 nM.

For `O=C1CCC(N2Cc3c(F)cc(COC(=O)Nc4cccc(OC(F)F)c4)cc3C2=O)C(=O)N1` (centres unmarked) [Compound 26, (2-(2,6-dioxopiperidin-3-yl)-7-fluoro-3-oxoisoindolin-5-yl)methyl(3-(difluoromethoxy)phenyl)carbamate], the pIC50 was > 6.22 in test [1] (setting [4]) and 5.72 to 5.92 in test [1] (setting [2]). Besides, the DC50 at GSPT1 (setting [3]) was in the range of 30 to 300 nM.

On to `O=C1CCC(N2Cc3c(F)cc(COC(=O)Nc4ccc(F)c(OC(F)F)c4)cc3C2=O)C(=O)N1` (centres unmarked) [Compound 7, (2-(2,6-dioxopiperidin-3-yl)-7-fluoro-3-oxoisoindolin-5-yl)methyl(3-(difluoromethoxy)-4-fluorophenyl)carbamate], for which the pIC50 is > 6.22 in test [1] (setting [4]) and 5.72 to 5.92 in test [1] (setting [2]). Further, the DC50 at GSPT1 (setting [3]) lay in the range of 30 to 300 nM.

`COc1cc(COC(=O)Nc2ccc(C(C)(C)C)cc2)cc2c1CN(C1CCC(=O)NC1=O)C2=O` (centres unmarked) [Compound 43, (2-(2,6-dioxopiperidin-3-yl)-7-methoxy-3-oxoisoindolin-5-yl)methyl (4-(tert-butyl)phenyl)carbamate]: the pIC50 was > 6.22 in test [1] (setting [4]) and 5.92 to 6.22 in test [1] (setting [2]). In addition, the DC50 at GSPT1 (setting [5]) and on GSPT1 (setting [3]) was < 30 nM each time.

Regarding `CC(C)(C)c1cccc(NC(=O)OCc2cc(F)c3c(c2)C(=O)N(C2CCC(=O)NC2=O)C3)c1` (centres unmarked) [Compound 25, (2-(2,6-dioxopiperidin-3-yl)-7-fluoro-3-oxoisoindolin-5-yl)methyl (3-(tert-butyl)phenyl)carbamate], in test [1] (setting [2]), the pIC50 is < 5.72. Moreover, the DC50 at GSPT1 (setting [5]) and on GSPT1 (setting [3]) was < 30 nM in each case.

Take `COc1cc(COC(=O)Nc2cccc(C(C)(C)C)c2)cc2c1CN(C1CCC(=O)NC1=O)C2=O` (centres unmarked) [Compound 54, (2-(2,6-dioxopiperidin-3-yl)-7-methoxy-3-oxoisoindolin-5-yl)methyl (3-(tert-butyl)phenyl)carbamate]: the results for the pIC50 in test [1] (setting [4]) and in test [1] (setting [2]) were > 6.22 and ≥ 6.22, respectively. In addition, the DC50 on GSPT1 (setting [5]) and at GSPT1 (setting [3]) was < 30 nM throughout.

For `COc1cc(COC(=O)Nc2ccc(C)c(OC(F)F)c2)cc2c1CN(C1CCC(=O)NC1=O)C2=O` (centres unmarked) [Compound 48, (2-(2,6-dioxopiperidin-3-yl)-7-methoxy-3-oxoisoindolin-5-yl)methyl (3-(difluoromethoxy)-4-methylphenyl) carbamate], the pIC50 is > 6.22 in test [1] (setting [4]) and 5.72 to 5.92 in test [1] (setting [2]). In addition, at GSPT1 (setting [3]), the DC50 is 30 to 300 nM.

With `COc1cc(COC(=O)Nc2cccc(OC(F)F)c2)cc2c1CN(C1CCC(=O)NC1=O)C2=O` (centres unmarked) [Compound 53, (2-(2,6-dioxopiperidin-3-yl)-7-methoxy-3-oxoisoindolin-5-yl)methyl (3-(difluoromethoxy)phenyl)carbamate], the pIC50 in test [1] (setting [4]) is > 6.22; in test [1] (setting [2]) it was ≥ 6.22. The DC50 on GSPT1 (setting [5]) and on GSPT1 (setting [3]) was < 30 nM throughout.

`COc1cc(COC(=O)Nc2cccc(OC3CC3)c2)cc2c1CN(C1CCC(=O)NC1=O)C2=O` (centres unmarked) [Compound 58, (2-(2,6-dioxopiperidin-3-yl)-7-methoxy-3-oxoisoindolin-5-yl)methyl (3-cyclopropoxyphenyl)carbamate]: the values for the negative logarithm of the IC50 (pIC50) in test [1] (setting [4]) and in test [1] (setting [2]) were > 6.22 and ≥ 6.22, respectively. Besides, the DC50 on GSPT1 (setting [3]) is > 300 nM.

As to `COc1cc(COC(=O)Nc2ccc(-c3ccccn3)cc2)cc2c1CN(C1CCC(=O)NC1=O)C2=O` (centres unmarked) [Compound 42, (2-(2,6-dioxopiperidin-3-yl)-7-methoxy-3-oxoisoindolin-5-yl)methyl (4-(pyridin-2-yl)phenyl)carbamate], the pIC50 in test [1] (setting [4]) is > 6.22; in test [1] (setting [2]) it was 5.92 to 6.22. Moreover, the DC50 at GSPT1 (setting [5]) and at GSPT1 (setting [3]) was < 30 nM each time.

Source of the values: US20240051936A1, “ISOINDOLINONE COMPOUNDS” (Monte Rosa Therapeutics, Inc., priority 2021, published 2024).
